These molecules were tested on LAB-1 (assay: Antibiotic sensitivity testing of LAB-1). Details: LAB-1 organism.
Assay type: cell-based
Procedure: A variety of biochemical tests were performed in order to identify the species and the genus of organism. The tests included: assessment of growth conditions, culture appearance, cell appearance and staining characteristics, optimal temperature and pH growth range, oxygen requirements, antibiotic sensitivity testing, tests for catalase and oxidase (using TAXOS N ? disks), amino acid utilization as carbon source, nitrogen fixation, motility test, and a variety of commercially available tests from MICRO-ID ? , OXYFERM ? , ENTEROTUBE ? and BIOLOG GN MICROPLATE ? .

| Molecule | Antibiotic Susceptibility Results |
| --- | --- |
| NCC[C@H](O)C(=O)N[C@@H]1C[C@H](N)[C@@H](O[C@H]2O[C@H](CN)[C@@H](O)[C@H](O)[C@H]2O)[C@H](O)[C@H]1O[C@H]1O[C@H](CO)[C@@H](O)[C@H](N)[C@H]1O [Amikacin] | sensitive |
| CC1(C)S[C@@H]2[C@H](NC(=O)[C@H](N)c3ccccc3)C(=O)N2[C@H]1C(=O)O [Ampicillin] | resistant |
| CC[C@H]1OC(=O)[C@H](C)[C@@H](O[C@H]2C[C@@](C)(OC)[C@@H](O)[C@H](C)O2)[C@H](C)[C@@H](O[C@@H]2O[C@H](C)C[C@H](N(C)C)[C@H]2O)[C@](C)(O)C[C@@H](C)C(=O)[C@H](C)[C@@H](O)[C@]1(C)O [Erythromycin] | resistant |
| CO[C@@H]1[C@@H](OC(N)=O)[C@@H](O)[C@H](Oc2ccc3c(O)c(NC(=O)c4ccc(O)c(CC=C(C)C)c4)c(=O)oc3c2C)OC1(C)C [Novobiocin] | sensitive |
| [H]/N=C(/N)N[C@H]1[C@H](O)[C@@H](O)[C@H](O[C@@H]2O[C@@H](C)[C@](O)(C=O)[C@H]2O[C@@H]2O[C@@H](CO)[C@H](O)[C@@H](O)[C@@H]2NC)[C@@H](N/C(N)=N\[H])[C@@H]1O [Streptomycin] | resistant |
| Neomycin | sensitive |
| Penicillin | resistant |
| Polymyxin B | sensitive |
